Molecular target: T1, human cloned dopamine D4.2 receptors (Homo sapiens, UniProt P21917, DEL265-296)
T1 construct: expressed in transfected cells; host or cells: CHO cells
T1 sequence (P21917 with tags, fused parts or gaps DEL265-296): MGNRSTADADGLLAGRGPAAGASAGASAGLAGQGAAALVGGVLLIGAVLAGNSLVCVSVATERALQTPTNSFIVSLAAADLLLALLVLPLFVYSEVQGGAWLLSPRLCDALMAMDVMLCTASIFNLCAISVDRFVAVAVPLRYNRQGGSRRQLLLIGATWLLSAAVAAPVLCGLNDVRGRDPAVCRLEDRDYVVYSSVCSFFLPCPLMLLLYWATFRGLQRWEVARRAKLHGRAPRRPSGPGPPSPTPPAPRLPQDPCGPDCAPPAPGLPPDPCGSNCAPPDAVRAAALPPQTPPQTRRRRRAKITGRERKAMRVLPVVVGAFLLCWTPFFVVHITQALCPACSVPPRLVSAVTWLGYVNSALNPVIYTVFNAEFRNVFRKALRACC
Experiment: Inhibition of the binding of [3H]YM-09151-2 to human dopamine D4 receptors
Conditions: 50 nM compound; [3H]YM-09151-2 0.06 nM; membranes of CHO-cells
Experimental: Inhibition of the Binding of [^3H]YM-09151-2 to Human Dopamine D4 Receptors
By this method, the inhibition by drugs of the binding of [^3H]YM-09151-2 (0.06 nM) to membranes of human cloned dopamine D4.2 receptors expressed in CHO-cells is determined in vitro. The method is modified from NEN Life Science Products, Inc., technical data certificate PC2533-10/96.

Compound	inhibition at 0.05 µM [%]	% inhibition of binding at 50 nM [%]
Cc1ccc(NC(=O)c2cccs2)cc1CCN1CCC(c2c[nH]c3ccc(Cl)cc23)CC1 [Compound 3b, 3-(1-{2-[2-Methyl-5-(thiophen-2-ylmethanoylamino)phenyl]ethyl}piperidin-4-yl)-5-chloro-1H-indole]	86	–
Cc1ccc(NC(=O)c2ccsc2)cc1CCN1CCC(c2c[nH]c3c(Cl)cccc23)CC1 [Compound 4j, 3-[1-(2-{2-Methyl-5-[(thiophen-3-ylmethanoyl)amino]phenyl}ethyl)piperidin-4-yl]-7-chloro-1H-indole]	48	–
Cc1ccc(NC(=O)c2cccs2)cc1CCN1CCC(c2c[nH]c3cc(Cl)ccc23)CC1 [Compound 3p, 3-(1-{2-[2-Methyl-5-(thiophen-2-ylmethanoylamino)phenyl]ethyl}piperidin-4-yl)-6-chloro-1H-indole]	92	–
Cc1ccc(NC(=O)C2CCCC2)cc1CCN1CCC(c2c[nH]c3cc(Cl)ccc23)CC1 [Compound 3v, 3-[1-(2-{5-[(Cyclopentylmethanoyl)amino]-2-methylphenyl}ethyl)piperidin-4-yl]-6-chloro-1H-indole]	95	–
CCCCCC(=O)Nc1ccc(C)c(CCN2CCC(c3c[nH]c4c(Cl)cccc34)CC2)c1 [Compound 3z, 3-(1-{2-[5-(Hexanoylamino)-2-methylphenyl]ethyl}piperidin-4-yl)-7-chloro-1H-indole]	91	–
COc1ccc(CC(=O)Nc2ccc(C)c(CCN3CCC(c4c[nH]c5cc(Cl)ccc45)CC3)c2)cc1 [Compound 3t, 3-[1-(2-{5-[2-(4-Methoxyphenyl)ethanoylamino]-2-methylphenyl}ethyl)piperidin-4-yl]-6-chloro-1H-indole]	75	–
Cc1ccc(C(=O)Nc2ccc(C)c(CCN3CCC(c4c[nH]c5cc(Cl)ccc45)CC3)c2)cc1 [Compound 3u, 3-(1-{2-[2-Methyl-5-(4-methylbenzoylamino)phenyl]ethyl}piperidin-4-yl)-6-chloro-1H-indole]	86	–
Cc1ccc(NC(=O)c2ccccc2)cc1CCN1CCC(c2c[nH]c3c(Cl)cccc23)CC1 [Compound 4d, 3-(1-{2-[5-(benzoylamino)-2-Methylphenyl]ethyl}piperidin-4-yl)-7-chloro-1H-indole]	48	–
Cc1ccc(NC(=O)C(C)(C)C)cc1CCN1CCC(c2c[nH]c3ccc(F)cc23)CC1 [Compound 3g, 3-(1-{2-[2-Methyl-5-(pivaloylamino)phenyl]ethyl}piperidin-4-yl)-5-fluoro-1H-indole]	86	–
Cc1ccc(NC(=O)CCC2CCCCC2)cc1CCN1CCC(c2c[nH]c3ccc(F)cc23)CC1 [Compound 3ac, 3-(1-{2-[5-(3-Cyclohexylpropanoylamino)-2-methylphenyl]ethyl}piperidin-4-yl)-5-fluoro-1H-indole]	97	–
Cc1ccc(NC(=O)c2ccncc2)cc1CCN1CCC(c2c[nH]c3c(Cl)cccc23)CC1 [Compound 4h, 3-[1-(2-{2-Methyl-5-[(pyridin-4-ylmethanoyl)amino]phenyl}ethyl)piperidin-4-yl]-7-chloro-1H-indole]	73	–
Cc1ccc(NC(=O)Cc2ccccc2)cc1CCN1CCC(c2c[nH]c3c(Cl)cccc23)CC1 [Compound 3ae, 3-[1-(2-{5-[(2-Phenylethanoyl)amino]-2-methylphenyl}ethyl)piperidin-4-yl]-7-chloro-1H-indole]	89	–
Cc1ccc(NC(=O)C2CC2)cc1CCN1CCC(c2c[nH]c3ccc(F)cc23)CC1 [Compound 3d, 3-(1-{2-[5-(Cyclopropylmethanoylamino)-2-methylphenyl]ethyl}piperidin-4-yl)-5-fluoro-1H-indole]	89	–
3-(1-{2-[5-(Isobutanolamino)-2-methylphenyl]ethyl}piperidin-4-yl)-5-fluoro-1H-indole [Compound 3f]	–	96
COc1cccc(C(=O)Nc2ccc(C)c(CCN3CCC(c4c[nH]c5cc(Cl)ccc45)CC3)c2)c1 [Compound 3r, 3-(1-{2-[5-(3-Methoxybenzoylamino)-2-methylphenyl]ethyl}piperidin-4-yl)-6-chloro-1H-indole]	88	–

More lines, now with the values ahead:

inhibition at 0.05 µM [%]	% inhibition of binding at 50 nM [%]	Compound
83	–	CCCCCC(=O)Nc1ccc(C)c(CCN2CCC(c3c[nH]c4ccc(F)cc34)CC2)c1 [Compound 3h, 3-(1-{2-[5-(Hexanoylamino)-2-methylphenyl]ethyl}piperidin-4-yl)-5-fluoro-1H-indole]
83	–	Cc1ccc(NC(=O)Nc2ccc(F)cc2)cc1CCN1CCC(c2c[nH]c3ccc(F)cc23)CC1 [Compound 3y, 3-[1-(2-{5-[3-(4-Fluorophenyl)ureido]-2-methylphenyl}ethyl)piperidin-4-yl]-5-fluoro-1H-indole]
90	–	COc1cccc(C(=O)Nc2ccc(C)c(CCN3CCC(c4c[nH]c5ccc(F)cc45)CC3)c2)c1 [Compound 3j, 3-(1-{2-[5-(3-Methoxybenzoylamino)-2-methylphenyl]ethyl}piperidin-4-yl)-5-fluoro-1H-indole]
91	–	Cc1ccc(NC(=O)c2cccnc2)cc1CCN1CCC(c2c[nH]c3ccc(F)cc23)CC1 [Compound 3k, 3-(1-{2-[2-Methyl-5-(pyridin-3-ylmethanoylamino)phenyl]ethyl}piperidin-4-yl)-5-fluoro-1H-indole]
95	–	Cc1ccc(NC(=O)C2CC2)cc1CCN1CCC(c2c[nH]c3c(Cl)cccc23)CC1 [Compound 3ag, 3-(1-{2-[5-(Cyclopropylmethanoylamino)-2-methylphenyl]ethyl}piperidin-4-yl)-7-chloro-1H-indole]
44	–	Cc1ccc(NC(=O)c2ccc(F)cc2)cc1CCN1CCC(c2c[nH]c3c(Cl)cccc23)CC1 [Compound 4e, 3-(1-{2-[5-(4-Fluorobenzoylamino)-2-methylphenyl]ethyl}piperidin-4-yl)-7-chloro-1H-indole]
99	–	Cc1ccc(NC(=O)C2CC2)cc1CCN1CCC(c2c[nH]c3cc(Cl)ccc23)CC1 [Compound 3o, 3-(1-{2-[5-(Cyclopropylmethanoylamino)-2-methylphenyl]ethyl}piperidin-4-yl)-6-chloro-1H-indole]
85	–	Cc1ccc(NC(=O)c2cccs2)cc1CCN1CCC(c2c[nH]c3c(Cl)cccc23)CC1 [Compound 4i, 3-[1-(2-{2-Methyl-5-[(thiophen-2-ylmethanoyl)amino]phenyl}ethyl)piperidin-4-yl]-7-chloro-1H-indole]
67	–	Cc1ccc(NC(=O)c2cnns2)cc1CCN1CCC(c2c[nH]c3c(Cl)cccc23)CC1 [Compound 4k, 3-[1-(2-{2-Methyl-5-[(1-[1,2,3]thiadiazol-5-ylmethanoyl)amino]phenyl}ethyl)piperidin-4-yl]-7-chloro-1H-indole]
79	–	Cc1ccc(NC(=O)c2ccc(Cl)cc2)cc1CCN1CCC(c2c[nH]c3c(Cl)cccc23)CC1 [Compound 3ab, 3-(1-{2-[5-(4-Chlorobenzoylamino)-2-methylphenyl]ethyl}piperidin-4-yl)-7-chloro-1H-indole]
68	–	COc1cccc(C(=O)Nc2ccc(C)c(CCN3CCC(c4c[nH]c5ccc(Cl)cc45)CC3)c2)c1 [Compound 3c, 3-(1-{2-[2-Methyl-5-(3-methoxybenzoylamino)phenyl]ethyl}piperidin-4-yl)-5-chloro-1H-indole]
97	–	Cc1ccc(NC(=O)C(C)C)cc1CCN1CCC(c2c[nH]c3cc(Cl)ccc23)CC1 [Compound 3q, 3-(1-{2-[5-(Isobutanoylamino)-2-methylphenyl]ethyl}piperidin-4-yl)-6-chloro-1H-indole]
48	–	COc1ccc(C(=O)Nc2ccc(C)c(CCN3CCC(c4c[nH]c5c(Cl)cccc45)CC3)c2)cc1 [Compound 4f, 3-(1-{2-[5-(4-Methoxybenzoylamino)-2-methylphenyl]ethyl}piperidin-4-yl)-7-chloro-1H-indole]
76	–	Cc1ccc(NC(=O)N(C)c2ccccc2)cc1CCN1CCC(c2c[nH]c3cc(Cl)ccc23)CC1 [Compound 3n, 3-(1-{2-[2-Methyl-5-(3-Methyl-3-phenylureido)phenyl]ethyl}piperidin-4-yl)-6-chloro-1H-indole]
96	–	Cc1ccc(NC(=O)C2CCOCC2)cc1CCN1CCC(c2c[nH]c3ccc(F)cc23)CC1 [Compound 3aa, 3-(1-{2-[2-Methyl-5-(tetrahydropyran-4-ylmethanoylamino)phenyl]ethyl}piperidin-4-yl)-5-fluoro-1H-indole]
92	–	Cc1ccc(NC(=O)c2cccnc2)cc1CCN1CCC(c2c[nH]c3cc(Cl)ccc23)CC1 [Compound 3s, 3-(1-{2-[2-Methyl-5-(pyridin-3-ylmethanoylamino)phenyl]ethyl}piperidin-4-yl)-6-chloro-1H-indole]
83	–	Cc1ccc(NC(=O)CCc2ccccc2)cc1CCN1CCC(c2c[nH]c3c(Cl)cccc23)CC1 [Compound 3ad, 3-[1-(2-{5-[(3-Phenylpropanoyl)amino]-2-methylphenyl}ethyl)piperidin-4-yl]-7-chloro-1H-indole]
–	90	Cc1ccc(NC(=O)N2CCOCC2)cc1CCN1CCC(c2c[nH]c3ccc(F)cc23)CC1 [Compound 3x, 3-(1-{2-[2-Methyl-5-(morfolin-4-ylmethanoylamino)phenyl]ethyl}piperidin-4-yl)-5-fluoro-1H-indole]
